According to patent publication US7919493B2, “Anititumoral ecteinascidin derivatives” (Pharma Mar, S.A., priority 2001, dated 2011):
Converted amounts (≈) assume the structure as drawn.

Legend:
Assay type in all cases: cell-based
[1] = system: P-388 (suspension culture of a lymphoid neoplasm from DBA/2 mouse); experiment: Cytotoxic activity screening, P-388 cells; conditions: Mus musculus, P388, 72 h, three days of incubation, approximate IC50 vs control growth
Experimental: (§1) Cell Cultures. Cells were maintained in logarithmic phase of growth in Eagle's Minimum Essential Medium, with Earle's Balanced Salts, with 2.0 mM L-glutamine, with non-essential amino acids, without sodium bicarbonate (EMEM/neaa); supplemented with 10% Fetal Calf Serum (FCS), 10^−2 M sodium bicarbonate and 0.1 g/l penicillin-G+streptomycin sulfate.
(§2) A simple screening procedure has been carried out to determine and compare the antitumour activity of these compounds, using an adapted form of the method described by Bergeron et al (1984). The tumour cell line employed have been P-388 (suspension culture of a lymphoid neoplasm from DBA/2 mouse), A-549 (monolayer culture of a human lung carcinoma), HT-29 (monolayer culture of a human colon carcinoma) and MEL-28 (monolayer culture of a human melanoma).
P-388 cell were seeded into 16 mm wells at 1×10^4 cells per well in 1 ml aliquots of MEM 5FCS containing the indicated concentration of drug. A separate set of cultures without drug was seeded as control growth to ensure that cells remained in exponential phase of growth. All determinations were carried out in duplicate.

[2] = system: A-549 (monolayer culture of a human lung carcinoma); experiment: Cytotoxic activity screening, A-549 cells; conditions: Homo sapiens, A549, 72 h, three days of incubation, Crystal Violet, approximate IC50
Experimental: as §1
(§3) A separate set of cultures without drug was seeded as control growth to ensure that cells remained in exponential phase of growth. All determinations were carried out in duplicate. After three days of incubation at 37° C., 10% CO2 in a 98% humid atmosphere, the wells were stained with 0.1% Crystal Violet. An approximately IC50 was determined by comparing the growth in wells with drug to the growth in wells control.

[3] = system: HT-29 (monolayer culture of a human colon carcinoma); experiment: Cytotoxic activity screening, HT-29 cells; conditions: Homo sapiens, HT-29, 72 h, three days of incubation, Crystal Violet, approximate IC50
Experimental: as §1, §3

[4] = system: MEL-28 (monolayer culture of a human melanoma); experiment: Cytotoxic activity screening, MEL-28 cells; conditions: Homo sapiens, SK-MEL-28, 72 h, three days of incubation, Crystal Violet, approximate IC50
Experimental: as §1, §2
as §3, with “A-549, HT-29 and MEL-28 were seeded into 16 mm wells at 2×10^4 cells per well in 1 ml aliquots of MEM 10FCS containing the indicated concentration of drug. A separate” for “A separate”

DU-145 = experiment: Cytotoxic activity screening, DU-145 cells; conditions: Homo sapiens, DU-145, DU-145 cells
Experimental: [The source words this procedure for another cell line and reports this cell line under the same test.] as §1, §2
Examples of biological activities of the compounds described in the present application are in Table IV (IC50 (ng/mL)) on the following pages.

COc1c(C)cc2c(c1O)[C@@H]1C3[C@@H]4SC[C@H](NC(=O)CCCCC5SCC6NC(=O)NC65)C(=O)OC[C@@H](c5c6c(c(C)c(OC(C)=O)c54)OCO6)N3[C@@H](C#N)[C@H](C2)N1C (some centres unmarked) [Compound 3k]
IC50 [1]: 0.01 µg/mL (≈ 0.0118 µM) | IC50 [2]: 0.01 µg/mL (≈ 0.0118 µM) | IC50 [3]: 0.005 µg/mL (≈ 0.00589 µM) | IC50 [4]: 0.005 µg/mL (≈ 0.00589 µM) | IC50 (DU-145): 0.005 µg/mL (≈ 0.00589 µM)

COc1c(C)cc2c(c1O)[C@@H]1C3[C@@H]4SC[C@H](NC(=O)CCC(=O)O)C(=O)OC[C@@H](c5c6c(c(C)c(OC(C)=O)c54)OCO6)N3[C@@H](C#N)[C@H](C2)N1C (some centres unmarked) [Compound 3l]
IC50 [1]: 0.1 µg/mL (≈ 0.138 µM) | IC50 [2]: 0.1 µg/mL (≈ 0.138 µM) | IC50 [3]: 0.1 µg/mL (≈ 0.138 µM) | IC50 [4]: 0.1 µg/mL (≈ 0.138 µM) | IC50 (DU-145): 0.1 µg/mL (≈ 0.138 µM)

COc1c(C)cc2c(c1O)[C@@H]1C3[C@@H]4SC[C@H](N(C)C)C(=O)OC[C@@H](c5c6c(c(C)c(OC(C)=O)c54)OCO6)N3[C@@H](C#N)[C@H](C2)N1C (some centres unmarked) [Compound 3m]
IC50 [1]: 0.01 µg/mL (≈ 0.0154 µM) | IC50 [2]: 0.01 µg/mL (≈ 0.0154 µM) | IC50 [3]: 0.01 µg/mL (≈ 0.0154 µM) | IC50 [4]: 0.01 µg/mL (≈ 0.0154 µM) | IC50 (DU-145): 0.01 µg/mL (≈ 0.0154 µM)

COc1c(C)cc2c(c1O)[C@@H]1C3[C@@H]4SCC(NCc5ccccc5)C(=O)OC[C@@H](c5c6c(c(C)c(OC(C)=O)c54)OCO6)N3[C@@H](C#N)[C@H](C2)N1C (some centres unmarked) [Compound 3n]
IC50 [1]: 0.0005 µg/mL (≈ 0.000701 µM) | IC50 [2]: 0.0005 µg/mL (≈ 0.000701 µM) | IC50 [3]: 0.0005 µg/mL (≈ 0.000701 µM) | IC50 [4]: 0.0005 µg/mL (≈ 0.000701 µM) | IC50 (DU-145): 0.0005 µg/mL (≈ 0.000701 µM)

CCCN[C@H]1CS[C@@H]2c3c(OC(C)=O)c(C)c4c(c3[C@H](COC1=O)N1C2[C@H]2c3c(cc(C)c(OC)c3O)C[C@@H]([C@@H]1C#N)N2C)OCO4 (some centres unmarked) [Compound 3o]
IC50 [2]: 0.005 µg/mL (≈ 0.00752 µM) | IC50 [3]: 0.005 µg/mL (≈ 0.00752 µM)

CCCN[C@H]1CS[C@@H]2c3c(OC(C)=O)c(C)c4c(c3[C@H](COC1=O)N1C2[C@H]2c3c(cc(C)c(OC)c3O)C[C@@H]([C@@H]1O)N2C)OCO4 (some centres unmarked) [Compound 4o]
IC50 [2]: 0.001 µg/mL (≈ 0.00152 µM) | IC50 [3]: 0.001 µg/mL (≈ 0.00152 µM)

COc1c(C)cc2c(c1O)[C@@H]1C3[C@@H]4SC[C@@H](O)C(=O)OC[C@@H](c5c6c(c(C)c(OC(C)=O)c54)OCO6)N3[C@@H](C#N)[C@H](C2)N1C (some centres unmarked) [Compound 16*]
IC50 [2]: 0.01 µg/mL (≈ 0.016 µM) | IC50 [3]: 0.01 µg/mL (≈ 0.016 µM)

COc1c(C)cc2c(c1O)[C@@H]1C3[C@@H]4SC[C@H](OS(C)(=O)=O)C(=O)OC[C@@H](c5c6c(c(C)c(OC(C)=O)c54)OCO6)N3[C@@H](C#N)[C@H](C2)N1C (some centres unmarked) [Compound 17ll]
IC50 [1]: 0.001 µg/mL (≈ 0.00142 µM) | IC50 [2]: 0.001 µg/mL (≈ 0.00142 µM) | IC50 [3]: 0.001 µg/mL (≈ 0.00142 µM) | IC50 [4]: 0.001 µg/mL (≈ 0.00142 µM)

CCCCCCCCCCCCCCCC(=O)O[C@H]1CS[C@@H]2c3c(OC(C)=O)c(C)c4c(c3[C@H](COC1=O)N1C2[C@H]2c3c(cc(C)c(OC)c3O)C[C@@H]([C@@H]1O)N2C)OCO4 (some centres unmarked) [Compound 21f]
IC50 [2]: > 1 µg/mL | IC50 [3]: > 1 µg/mL

CC(=O)Oc1c(C)c2c(c3c1[C@H]1SC[C@H](N)C(=O)OC[C@@H]3N3C1[C@H]1c4c(cc(C)c(O)c4O)C[C@@H]([C@@H]3C#N)N1C)OCO2 (some centres unmarked) [Compound 24]
IC50 [2]: 0.1 µg/mL (≈ 0.164 µM) | IC50 [3]: 0.1 µg/mL (≈ 0.164 µM)

COc1c(C)cc2c(c1O)[C@@H]1C3[C@@H]4SC[C@@H](NC(C)=O)C(=O)OC[C@@H](c5c6c(c(C)c(O)c54)OCO6)N3[C@@H](C#N)[C@H](C2)N1C (some centres unmarked) [Compound 25]
IC50 [2]: 0.01 µg/mL (≈ 0.0161 µM) | IC50 [3]: 0.01 µg/mL (≈ 0.0161 µM)

CC(=O)N[C@@H]1CS[C@@H]2c3c(OC(C)=O)c(C)c4c(c3[C@H](COC1=O)N1C2[C@H]2c3c(cc(C)c(O)c3O)C[C@@H]([C@@H]1C#N)N2C)OCO4 (some centres unmarked) [Compound 26]
IC50 [2]: 0.1 µg/mL (≈ 0.154 µM) | IC50 [3]: 0.1 µg/mL (≈ 0.154 µM)
